Measurements as given in patent US8257739B2, “Pharmaceutical compositions of semi-ordered drugs and polymers” (Bend Research, Inc., priority 2002, dated 2012).

How the values were obtained:
[1] = In vivo test of Drug 1 compositions, oral powder for constitution, plasma Drug 1; settings: male beagle dogs, oral gavage, 10 mgA/kg Drug 1, plasma
Description: The composition of Example 1B was used as an oral powder for constitution (OPC) for evaluating the performance of the composition in in vivo tests using male beagle dogs. The OPC was dosed as a suspension in a solution containing 0.5 wt % Methocel® (Dow Chemical Co.), and was prepared as follows. First, 5.0130 g of Methocel® was weighed out and added slowly to approximately 200 ml of water at 60° C. to form a Methocel® suspension. After all the Methocel® was added, the suspension was placed in a beaker of ice water. Next, 800 ml of chilled water was added with stirring. A 702.7 mg sample of Example 1B was weighed into a mortar. A drop of the Methocel® suspension was added to the mortar and the drug mixture was ground with a pestle. Additional Methocel® suspension was added gradually with grinding until a pourable suspension was obtained. The suspension was then transferred to a vial. The mortar and pestle were washed with the remaining Methocel® suspension. A total of 350 ml of Methocel® suspension was added to the Example 1B sample.
Six male beagle dogs were dosed with samples of Example 1B. Sufficient amounts of the OPC were dosed such that each dog received 10 mgA/kg of Drug 1 (where “A” refers to active drug). The dogs were fed 1 can of liquid diet the day prior to the study. On the day of the study, the dogs were dosed with the OPC using a gavage tube and a syringe. Whole blood samples of 6 ml were taken from the jugular vein using a plasma vacutainer containing sodium heparin with a 20 gauge needle at 0, ½, 1, 2, 3, 4, 6, 8, and 24 hours post dosing. Samples were spun in a refrigerated (5° C.) centrifuge at 3000 rpm for 5 minutes. The resultant plasma samples were poured into 2 ml cryogenic plastic tubes and stored in a freezer (−20° C.) within ½ hour post sampling time. Samples were then analyzed for Drug 1 using an HPLC method.
A similar method was used to dose the dogs with samples of Control 1B, Control 1C, and Control 1D. A washout period of at least 1 week was used between dosing of the various compositions.

[2] = In vitro dissolution test of Drug 1 compositions in MFDS solution (concentration enhancement); format: physicochemical; settings: for AUC90 / Cmax9O: Drug 1, MFDS pH 6.5, 37° C., first 90 min; for AUC / Drug 1 Concentration: MFDS pH 6.5, 37° C.
Excerpt: In conducting such a dissolution test, the amount of test composition used is an amount such that if all of the drug dissolved, the drug concentration would be at least 2-fold to 100-fold or more than that of the equilibrium concentration of the drug. The concentration of dissolved drug is typically measured as a function of time by sampling the test medium and plotting drug concentration in the test medium vs. time so that the MDC and/or AUC can be ascertained.
To avoid drug particulates greater than about 0.4 to 1.0 μm in size being present in the solution assayed, which would give an erroneous determination, the test solution is either filtered or centrifuged. “Dissolved drug” is typically taken as that material that either passes a 0.45 μm syringe filter or, alternatively, the material that remains in the supernatant following centrifugation. Filtration can be conducted using a 13 mm, 0.45 μm polyvinylidine difluoride syringe filter sold by Scientific Resources under the trademark TITAN®. Centrifugation is typically carried out in a polypropylene microcentrifuge tube by centrifuging at 13,000 G for 60 seconds. Other similar filtration or centrifugation methods can be employed and useful results obtained. For example, using other types of microfilters may yield values somewhat higher or lower (by about 10-40%) than that obtained with the filter specified above but will still allow identification of preferred compositions. It is recognized that this definition of “dissolved drug” encompasses not only monomeric solvated drug molecules but also a wide range of species such as polymer/drug assemblies that have submicron dimensions such as drug aggregates, aggregates of mixtures of polymer and drug, micelles, polymeric micelles, colloidal particles or nanocrystals, polymer/drug complexes, and other such drug-containing species that are present in the filtrate or supernatant in the specified dissolution test.
For these tests, samples containing 0.72 mg of Example 1B, 0.36 mg of either Control 1C or 1D, or 0.72 mg of Control 1E were separately added to microcentrifuge tubes. The tubes were placed in a 37° C. temperature-controlled chamber, and 1.8 mL MFDS solution at pH 6.5 was added. The contents of the tubes were quickly mixed using a vortex mixer for about 60 seconds. The tubes were then centrifuged at 13,000 G at 37° C. for 1 minute. The supernatant was sampled and diluted 1:6 (by volume) with methanol and then analyzed by high-performance liquid chromatography (HPLC). Drug 1 was analyzed by HPLC using a Waters Symmetry C18 column. The mobile phase consisted of 0.3 vol % glacial acetic acid, 0.2 vol % triethylamine in HPLC water/acetonitrile in a volume ratio of 50/50. Drug concentration was calculated by comparing UV absorbance at 260 nm to the absorbance of Drug 1 standards.
The contents of the tubes were then again mixed on the vortex mixer and allowed to stand undisturbed at 37° C. until the next sample was taken. Samples of the tubes were collected at 4, 10, 20, 40, 90, and 1200 minutes.

[3] = In vitro dissolution test of Drug 2 compositions in MFDS solution (concentration enhancement); format: physicochemical; settings: 37° C.; for AUC / Drug 2 Concentration: MFDS
Description: The concentration-enhancement provided by Example 2, Control 2B and Control 2C was determined using an in vitro dissolution test as follows. Samples containing 3.91 mg of Example 2, 0.36 mg of Control 2B, or 3.9 mg of Control 2C, were separately added to microcentrifuge tubes. The tubes were placed in a 37° C. temperature-controlled chamber, and 1.8 mL MFDS solution was added. The contents of the tubes were quickly mixed using a vortex mixer for about 60 seconds. The tubes were then centrifuged at 13,000 G at 37° C. for 1 minute. The supernatant was sampled and diluted 1:6 (by volume) with methanol and then analyzed by high-performance liquid chromatography (HPLC). Drug 2 was analyzed by HPLC using a Phenomenex ODS 20 column (250 mm×4.6mm). The mobile phase consisted of 0.02 M KH2PO4 (pH 3)/acetonitrile in a volume ratio of 60/40. Drug concentration was calculated by comparing UV absorbance at 254 nm to the absorbance of Drug 2 standards. The contents of the tubes were then again mixed on the vortex mixer and the next sample was taken. […]

[4] = In vivo test of Drug 2 compositions, gelatin capsule, plasma Drug 2; settings: fasted male beagle dogs, one gelatin capsule, 40 mg Drug 2, plasma
Description: The composition of Example 2 was placed in a gelatin capsule such that the capsule contained 40 mg of Drug 2. Five fasted male beagle dogs were dosed with one capsule and whole blood samples of 6 ml were taken from the jugular vein using a plasma vacutainer containing sodium heparin with a 20 gauge needle at 0, ½, 1, 1½, 2, 3, 4, 6, 8, 12, and 24 hours post dosing. Samples were spun in a refrigerated (5° C.) centrifuge at 3000 rpm for 5 minutes. Resultant plasma samples were poured into 2 ml cryogenic plastic tubes and were stored in a freezer (−20° C.) within ½ hour post sampling time. Similar tests were performed with a gelatin capsule containing 40 mg of crystalline Drug 2 (Control 2B).

Cmax [1] | AUC90 [2] | Cmax9O [2] | AUC ([2]; time 0 min) | Drug 1 Concentration ([2]; time 0 min) | AUC ([2]; time 4 min) | Drug 1 Concentration ([2]; time 4 min) | AUC ([2]; time 10 min) | Drug 1 Concentration ([2]; time 10 min) | AUC ([2]; time 20 min) | Drug 1 Concentration ([2]; time 20 min) | AUC ([2]; time 40 min) | Drug 1 Concentration ([2]; time 40 min) | AUC ([2]; time 90 min) | Drug 1 Concentration ([2]; time 90 min) | AUC ([2]; time 1200 min) | Drug 1 Concentration ([2]; time 1200 min) | SMILES | other results
1,650 ng/ml | 2200 µg·min/mL | 32 µg/mL | 0 µg·min/mL | 0 µg/mL | 0 µg·min/mL | 9 µg/mL | 100 µg·min/mL | 15 µg/mL | 300 µg·min/mL | 21 µg/mL | 800 µg·min/mL | 27 µg/mL | 2,200 min*μg/mL | 32 µg/mL | 43,300 min*μg/mL | 42 µg/mL | NC(=O)N(O)C1C=C(c2cccc(Oc3ccc(F)cc3)c2)CC1 (single isomer, unassigned; (+)) [Control 1C, (+)-N-{3-[3-(4-fluorophenoxy)phenyl]-2-cyclopenten-1-yl}-N-hydroxyurea] | AUC(0-inf) ([1]; male, beagle, dog, plasma, po, 10 mgA/kg, read-out: AUC(0-inf)): 11100 ng·h/mL
3,622 ng/ml | 5600 µg·min/mL | 70 µg/mL | 0 µg·min/mL | 0 µg/mL | 100 µg·min/mL | 50 µg/mL | 400 µg·min/mL | 58 µg/mL | 1,000 min*μg/mL | 61 µg/mL | 2,300 min*μg/mL | 64 µg/mL | 5,600 min*μg/mL | 70 µg/mL | 77,800 min*μg/mL | 60 µg/mL | NC(=O)N(O)C1C=C(c2cccc(Oc3ccc(F)cc3)c2)CC1 (single isomer, unassigned; (+)) [Control 1D, (+)-N-{3-[3-(4-fluorophenoxy)phenyl]-2-cyclopenten-1-yl}-N-hydroxyurea] | AUC(0-inf) [1]: 20,700 ng/ml * hr
– | – | – | – | – | – | – | – | – | – | – | – | – | – | – | – | – | O=C1Cc2cc(CCN3CCN(c4nsc5ccccc45)CC3)c(Cl)cc2N1 [Control 2B] | AUC90 ([3]; Drug 2, MFDS, first 90 min): 1,600 min * μg/mL; Cmax90 ([3]; Drug 2, MFDS, first 90 min): 23 µg/mL; AUC ([3]; time 4 min): 0 µg·min/mL; Drug 2 Concentration ([3]; time 4 min): 14 µg/mL; AUC ([3]; time 10 min): 100 µg·min/mL; Drug 2 Concentration ([3]; time 10 min): 17 µg/mL; AUC ([3]; time 20 min): 300 µg·min/mL; Drug 2 Concentration ([3]; time 20 min): 23 µg/mL; AUC ([3]; time 40 min): 700 µg·min/mL; Drug 2 Concentration ([3]; time 40 min): 19 µg/mL; AUC ([3]; time 90 min): 1,600 min*μg/mL; Drug 2 Concentration ([3]; time 90 min): 15 µg/mL; AUC ([3]; time 1200 min): 14,900 min*μg/mL; Drug 2 Concentration ([3]; time 1200 min): 9 µg/mL; AUC(0-inf) [4]: 1050 ng·h/mL; Cmax [4]: 196 ng/mL
